Measured values taken from publication PMC3706270 (Immunogenetics, 2011).

System: Mamu-A1*007:01
Format: binding, Macaca mulatta
Details: Table 4; for Relative binding (WT): binding relative to the WT epitope

| Sequence | Relative binding (WT) | Fold decrease (fold decrease of binding affinity versus WT epitope) |
| --- | --- | --- |
| NYIYDRHGDTL [Peptide 3408.0007] | <0.000003 | >350000 |
| SQGIRQILFL [Peptide 3408.0014] | 0.0035 |  |
| YHSNVKEL | 1.0 |  |
